{"source": "paper PMC6264278", "about": "“Corydaline Inhibits Multiple Cytochrome P450 and UDP-Glucuronosyltransferase Enzyme Activities in Human Liver Microsomes” (Molecules, 2011)", "target": "T1, CYP2A6 (Homo sapiens, UniProt P11509)", "T1 construct": "using pooled human liver microsomes; tissue BD Gentest Co. H161; host or cells: pooled human liver microsomes", "T1 sequence (P11509 1-494)": "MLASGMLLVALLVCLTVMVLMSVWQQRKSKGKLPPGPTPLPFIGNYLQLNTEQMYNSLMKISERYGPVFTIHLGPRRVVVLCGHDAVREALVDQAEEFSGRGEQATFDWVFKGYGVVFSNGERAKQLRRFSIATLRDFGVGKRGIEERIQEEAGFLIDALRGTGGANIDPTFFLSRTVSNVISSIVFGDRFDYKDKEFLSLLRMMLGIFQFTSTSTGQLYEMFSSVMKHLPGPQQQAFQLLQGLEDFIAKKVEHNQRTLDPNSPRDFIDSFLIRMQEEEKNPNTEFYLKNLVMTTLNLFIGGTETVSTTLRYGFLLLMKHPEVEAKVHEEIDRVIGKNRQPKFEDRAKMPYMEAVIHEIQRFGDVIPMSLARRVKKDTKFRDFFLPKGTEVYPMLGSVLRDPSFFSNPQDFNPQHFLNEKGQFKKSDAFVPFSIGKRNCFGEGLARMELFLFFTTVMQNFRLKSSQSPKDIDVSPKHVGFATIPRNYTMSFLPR", "assay": "CYP2A6 coumarin 7-hydroxylation inhibition, cocktail assay in pooled human liver microsomes", "type": "in vitro ADME", "details": "2.5 μM coumarin, no inhibition at 200 μM of corydaline; for IC50 no preincubation, CYP2A6 coumarin 7-hydroxylation: pooled human liver microsomes (H161)", "experimental": "Phenacetin O-deethylase, coumarin 7-hydroxylase, amodiaquine N-deethylase, diclofenac 4-hydroxylase, S-mephenytoin 4-hydroxylase, bufuralol hydroxylase, and midazolam 1’-hydroxylase activities were determined as probe activities for CYP1A2, CYP2A6, CYP2C8, CYP2C9, CYP2C19, CYP2D6, and CYP3A4, respectively, using cocktail incubation and liquid chromatography-tandem mass spectrometry (LC/MS/MS). The incubation mixtures were prepared in a total volume of 200 μL, as follows: pooled human liver microsomes (0.25 mg/mL), 1.3 mM NADPH, 3.3 mM MgCl2, 50 mM potassium phosphate buffer (pH 7.4), and a cocktail of probe substrates and various concentrations of corydaline (1−200 μM). The substrates were used at concentrations approximately equal to their respective Km values: 50 μM phenacetin, 2.5 μM coumarin, 2.5 μM amodiaquine, 10 μM diclofenac, 100 μM S-mephenytoin, 5 μM bufuralol, and 2.5 μM midazolam. After a 3-min pre-incubation period at 37 °C, the reactions were initiated by addition of an NADP generating system and incubated for 20 min at 37 °C in a shaking water bath. After incubation, the reaction was stopped by placement of the tubes on ice and addition of 100 μL of ice-cold methanol containing internal standards (^13C2,^15N-acetaminophen for acetaminophen and N-desethylamodiaquine, d5-7-hydroxycoumarin for 7-hydroxycoumarin, ^13C6-4-hydroxydiclofenac for 4-hydroxydiclofenac, d3-4-hydroxy-mephenytoin for 4-hydroxymephenytoin and hydroxymidazolam, d9-1-hydroxybufuralol for 1-hydroxybufuralol). The incubation mixtures were then centrifuged at 13,000 × g for 5 min. All incubations were performed in triplicate and the mean values were used. […] The reaction was started by addition of a cocktail of CYP probe substrates.\nAll 7 metabolites produced from the cocktail of CYP isoform-specific substrates were simultaneously determined by LC/MS/MS [25]. […] Quantification was performed by selected reaction monitoring (SRM) of the [M+H]^+ ion and the related product ion for each metabolite. […]", "data": [{"smiles": "COc1cc2c(cc1OC)C1C(C)c3ccc(OC)c(OC)c3CN1CC2", "note": "(stereo not drawn) [Corydaline, 2,3,9,10-tetramethoxy-13-methyl-5,8,13,13a-tetrahydro-6H-isoquino[3,2-a]isoquinoline]", "values": [{"measurement": "IC50 no preincubation, CYP2A6 coumarin 7-hydroxylation", "value": "negligible inhibition"}, {"measurement": "IC50 no preincubation, CYP2A6 coumarin 7-hydroxylation", "setting": "listed as corydaline", "value": "No inhibition **"}, {"measurement": "IC50 with preincubation, CYP2A6 coumarin 7-hydroxylation", "setting": "pre-incubated 30 min with NADPH", "value": "No inhibition **"}]}]}
